In ChEMBL document CHEMBL1156397, “A benzylisoquinoline alkaloid from Doryphora sassafras” (J Nat Prod, 2001):

Biological target: Kappa-type opioid receptor (Cavia porcellus) (UniProt P41144)
Test: Displacement of [3H]U69593 from kappa opioid receptor in guinea pig brain membrane at 100 uM by Betaplate liquid scintillation counter
Assay type: cell membranes

Kappa-type opioid receptor (Cavia porcellus), sequence (P41144 whole entry): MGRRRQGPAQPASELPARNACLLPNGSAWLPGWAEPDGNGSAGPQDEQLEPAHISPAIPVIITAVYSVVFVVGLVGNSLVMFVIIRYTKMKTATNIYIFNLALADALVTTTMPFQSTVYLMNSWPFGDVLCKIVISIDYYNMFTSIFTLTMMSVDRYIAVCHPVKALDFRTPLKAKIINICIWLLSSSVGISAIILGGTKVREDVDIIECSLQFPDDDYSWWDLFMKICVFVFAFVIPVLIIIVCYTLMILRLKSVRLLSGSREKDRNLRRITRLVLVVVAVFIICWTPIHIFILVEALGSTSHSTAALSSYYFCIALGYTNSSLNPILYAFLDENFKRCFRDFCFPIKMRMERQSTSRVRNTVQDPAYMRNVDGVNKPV

In the case of COc1ccc(Cc2c3cc4c(cc3cc[n+]2C)OCO4)cc1, the Activity is reported as 50%.
